Measurements published in patent publication US20060264460A1 (Wyeth, priority 2005, published 2006).

Target: T1, human Cot/Tpl2 kinase (Homo sapiens, UniProt P41279)
T1 construct: human Cot/Tpl2 kinase construct encoding residues 30-398; 6His (N); made in house; host or cells: Sf9 insect cells, baculovirus system (BD Biosciences)
Experiment: Tpl2/Cot kinase assay: GST-MEK1 phosphorylation detected by ELISA (DELFIA Eu)
Type: biochemical
Conditions: 0.4 nM Tpl2, 35 nM GST-MEK1, 50 uM ATP, 1 h at 30° C.
Method in brief: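 His-tagged human Tpl2 from Sf9 cells, Ni-affinity and size-exclusion purified (monomer). 0.4 nM Tpl2 with 35 nM GST-MEK1, 50 uM ATP, MOPS pH 7.2, 1% DMSO, 1 h at 30° C; EDTA stop. MEK1 Ser217/221 phosphorylation detected by anti-phospho-MEK1 and Eu-labelled secondary ELISA; IC50 fitted.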

T1 sequence (P41279 30-398): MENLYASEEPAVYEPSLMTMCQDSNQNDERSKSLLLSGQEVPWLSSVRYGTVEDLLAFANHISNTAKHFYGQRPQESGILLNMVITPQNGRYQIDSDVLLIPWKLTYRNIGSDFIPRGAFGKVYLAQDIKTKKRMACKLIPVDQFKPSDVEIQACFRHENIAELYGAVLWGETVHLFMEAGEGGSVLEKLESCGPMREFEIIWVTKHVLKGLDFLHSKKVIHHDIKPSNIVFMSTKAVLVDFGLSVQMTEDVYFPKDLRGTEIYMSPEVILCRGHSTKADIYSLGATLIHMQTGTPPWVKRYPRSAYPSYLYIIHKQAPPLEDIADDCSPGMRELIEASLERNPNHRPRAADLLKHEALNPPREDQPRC

Row | IC50 | SMILES
1 | 650 nM | COCCOc1ccc(C#N)cc1CNc1ccc2ncc(C#N)c(Nc3ccc(F)c(Cl)c3)c2c1 [Example 57, 4-(3-Chloro-4-fluoro-phenylamino)-6-[5-cyano-2-(2-methoxy-ethoxy)-benzylamino]-quinoline-3-carbonitrile]
2 | 130 nM | CC(C)c1nc[nH]c1CNc1cc(Br)c2ncc(C#N)c(Nc3ccc(F)c(Cl)c3)c2c1 [Example 115, 8-bromo-4-(3-chloro-4-fluorophenylamino)-6-((4-isopropyl-1H-imidazol-5-yl)methylamino)quinoline-3-carbonitrile]
3 | 100 nM | N#Cc1cnc2c(F)cc(NCc3ccn[nH]3)cc2c1Nc1ccc(F)c(Cl)c1 [Example 267, 4-[(3-chloro-4-fluorophenyl)amino]-8-fluoro-6-[(1H-pyrazol-5-ylmethyl)amino]quinoline-3-carbonitrile]
4 | 510 nM | CN(C)C(=O)CNc1ccc2ncc(C#N)c(Nc3ccc(F)c(Cl)c3)c2c1 [Example 103, 2-(4-(3-chloro-4-fluorophenylamino)-3-cyanoquinolin-6-ylamino)-N,N-dimethylacetamide]
5 | 15300 nM | N#Cc1cnc2ccc(NC[C@@H]3CCCN3)cc2c1Nc1ccc(F)c(Cl)c1 [Example 43, 4-(3-Chloro-4-fluoro-phenylamino)-6-[(L-pyrrolidin-2-ylmethyl)-amino]-quinoline-3-carbonitrile]
6 | 7.2 nM | Cn1cc(CNc2cc(Cl)c3ncc(C#N)c(Nc4ccc(F)c(Cl)c4)c3c2)nn1 [Example 217, 8-chloro-4-[(3-chloro-4-fluorophenyl)amino]-6-{[(1-methyl-1H-1,2,3-triazol-4-yl)methyl]amino}quinoline-3-carbonitrile]
7 | 13 nM | N#Cc1cnc2c(F)cc(NCc3cccc[n+]3[O-])cc2c1Nc1ccc(F)c(Cl)c1 [Example 266, 4-[(3-chloro-4-fluorophenyl)amino]-8-fluoro-6-{[(1-oxidopyridin-2-yl)methyl]amino}quinoline-3-carbonitrile]
8 | 200 nM | CS(=O)(=O)c1ccc(CNc2ccc3ncc(C#N)c(Nc4ccc(F)c(Cl)c4)c3c2)cc1 [Example 50, 4-(3-Chloro-4-fluoro-phenylamino)-6-(4-methanesulfonyl-benzylamino)-quinoline-3-carbonitrile]
9 | 26 nM | Cn1ccnc1CNc1cc(Br)c2ncc(C#N)c(Nc3ccc(F)c(Cl)c3)c2c1 [Example 220, 8-bromo-4-[(3-chloro-4-fluorophenyl)amino]-6-{[(1-methyl-1H-imidazol-2-yl)methyl]amino}quinoline-3-carbonitrile]
10 | 1360 nM | N#Cc1cnc2c(Cl)cc(NCC3CCN(Cc4cccnc4)CC3)cc2c1Nc1ccc(F)c(Cl)c1 [Example 323, 8-chloro-4-(3-chloro-4-fluorophenylamino)-6-((1-(pyridin-3-ylmethyl)piperidin-4-yl)methylamino)quinoline-3-carbonitrile]
11 | 28 nM | COC(=O)Cn1ccnc1CNc1ccc2ncc(C#N)c(Nc3ccc(F)c(Cl)c3)c2c1 [Example 137, Methyl 2-(2-((4-(3-chloro-4-fluorophenylamino)-3-cyanoquinolin-6-ylamino)methyl)-1H-imidazol-1-yl)acetate]
12 | 110 nM | CS(=O)(=O)c1ccc(CNc2cc(Cl)c3ncc(C#N)c(Nc4ccc(F)c(Cl)c4)c3c2)cc1 [Example 184, 6-(4-(methylsulfonyl)benzylamino)-8-chloro-4-(3-chloro-4-fluorophenylamino)quinoline-3-carbonitrile]
13 | 20 nM | CN(C)C(=O)Cn1ccnc1CNc1ccc2ncc(C#N)c(Nc3ccc(F)c(Cl)c3)c2c1 [Example 140, 2-(2-((4-(3-chloro-4-fluorophenylamino)-3-cyanoquinolin-6-ylamino)methyl)-1H-imidazol-1-yl)-N, N-dimethylacetamide]
14 | 550 nM | CNC(=O)CNc1ccc2ncc(C#N)c(Nc3ccc(F)c(Cl)c3)c2c1 [Example 108, 2-(4-(3-chloro-4-fluorophenylamino)-3-cyanoquinolin-6-ylamino)-N-methylacetamide]
15 | 150 nM | N#Cc1cnc2c(CCC(=O)CO)cc(NCc3cnc[nH]3)cc2c1Nc1ccc(F)c(Cl)c1 [Example 310, 4-[(3-chloro-4-fluorophenyl)amino]-8-(4-hydroxy-3-oxybutyl)-6-[(1H-imidazol-5-ylmethyl)amino]quinoline-3-carbonitrile]
16 | 29 nM | N#Cc1cnc2c(Br)cc(NCc3cn(CCN4CCOCC4)nn3)cc2c1Nc1ccc(F)c(Cl)c1 [Example 297, 8-Bromo-4-(3-chloro-4-fluoro-phenylamino)-6-{[1-(2-morpholin-4-yl-ethyl)-1H-[1,2,3]triazol-4-ylmethyl]-amino}-quinoline-3-carbonitrile]
17 | 37 nM | N#Cc1cnc2c(Br)cc(NCc3cn(CCN4CCOC4=O)nn3)cc2c1Nc1ccc(F)c(Cl)c1 [Example 223, 8-bromo-4-(3-chloro-4-fluorophenylamino)-6-((1-(2-(2-oxooxazolidin-3-yl)ethyl)-1H-1,2,3-triazol-4-yl)methylamino)quinoline-3-carbonitrile]
18 | 380 nM | Cn1ccnc1CNc1ccc2ncc(C#N)c(NC3CCCCCC3)c2c1 [Example 249, 4-(cycloheptylamino)-6-{[(1-methyl-1H-imidazol-2-yl)methyl]amino}quinoline-3-carbonitrile]
19 | 2400 nM | N#Cc1cnc2ccc(NCc3cccnc3)cc2c1NC1CCCCCC1 [Example 246, 4-(cycloheptylamino)-6-[(pyridin-3-ylmethyl)amino]quinoline-3-carbonitrile]

Same assay, conditions: Table 2; Tpl2/Cot kinase, GST-MEK1 substrate, 50 uM ATP

Row | IC50 | SMILES
20 | 8400 nM | CN(C)C(=O)c1cc(N)cc2c(Nc3cccc(Cl)c3)c(C#N)cnc12 [Example 359]
21 | 170 nM | C=Cc1cc(NCc2cnc[nH]2)cc2c(Nc3ccc(F)c(Cl)c3)c(C#N)cnc12 [Example 457]
22 | > 40000 nM | CCN1CCC(Nc2ccc3ncc(C#N)c(Nc4ccc(F)c(Cl)c4)c3c2)C(C)C1 (stereo not shown) [Example 377]
23 | 21 nM | C[Si](C)(C)c1n[nH]nc1CNc1cc(Br)c2ncc(C#N)c(Nc3ccc(F)c(Cl)c3)c2c1 [Example 435]
24 | 5.3 nM | N#Cc1cnc2c(Cl)cc(NCc3cn(Cc4ccncc4)cn3)cc2c1Nc1ccc(F)c(Cl)c1 [Example 622]
25 | 120 nM | CC(C)(C)OC(=O)N1CCCC(Cn2cc(CNc3cc(Br)c4ncc(C#N)c(Nc5ccc(F)c(Cl)c5)c4c3)nn2)C1 (stereo not shown) [Example 540]
26 | 130 nM | CC(C)(C)OC(=O)N1CCC(CCn2cc(CNc3cc(Br)c4ncc(C#N)c(Nc5ccc(F)c(Cl)c5)c4c3)nn2)CC1 [Example 503]
27 | 20600 nM | Cc1[nH]c(-c2cccnc2)nc1CNc1cc(Cl)c2ncc(C#N)c(Nc3ccc(F)c(Cl)c3)c2c1 [Example 444]
28 | > 3000 nM | CN(C)Cc1cn(C2CCCC2Nc2cc(Cl)c3ncc(C#N)c(Nc4ccc(F)c(Cl)c4)c3c2)nn1 (stereo not shown) [Example 636]
29 | 40 nM | N#Cc1cnc2c(Cl)cc(NCc3cn(CCN4CCCC4)nn3)cc2c1Nc1ccc(F)c(Cl)c1 [Example 515]
30 | 23 nM | N#Cc1cnc2c(Cl)cc(NCc3cn(CC(F)(F)F)nn3)cc2c1Nc1ccc(F)c(Cl)c1 [Example 491]
31 | > 40000 nM | N#Cc1cnc2ccc(NCCN3CCOCC3)cc2c1NC1CCN(Cc2ccccc2)CC1 [Example 367]
32 | 3.6 nM | N#Cc1cnc2c(Cl)cc(NCc3cn(CCCO)nn3)cc2c1Nc1ccc(F)c(Cl)c1 [Example 581]
33 | 400 nM | N#Cc1cnc2ccc(NCc3ccc(=O)[nH]c3)cc2c1Nc1ccc(F)c(F)c1 [Example 341]

Same assay, conditions: Tpl2/Cot kinase, GST-MEK1 substrate, 50 uM ATP

Row | IC50 | SMILES
34 | 48 nM | CN1CCCN(CCCn2cc(CNc3cc(Cl)c4ncc(C#N)c(Nc5ccc(F)c(Cl)c5)c4c3)nn2)CC1 [Example 794]
35 | 14 nM | CN(C)C(=O)Cn1cc(CNc2cc(Br)c3ncc(C#N)c(Nc4ccc(F)c(Cl)c4)c3c2)nn1 [Example 834]
36 | 0.9 nM | N#Cc1cnc2c(Cl)cc(NCc3cn(CCc4ccncc4)nn3)cc2c1Nc1ccc(F)c(Cl)c1 [Example 918]
37 | 37 nM | CN1CCC(Cn2cc(CNc3cc(Cl)c4ncc(C#N)c(Nc5ccc(F)c(Cl)c5)c4c3)nn2)CC1 [Example 825]
38 | 8.4 nM | N#Cc1cnc2c(Cl)cc(NCc3cn(C[C@H]4CCCN4)nn3)cc2c1Nc1ccc(F)c(Cl)c1 [Example 889]
39 | 3.5 nM | CC(C)NC(=O)Cn1cc(CNc2cc(Cl)c3ncc(C#N)c(Nc4ccc(F)c(Cl)c4)c3c2)nn1 [Example 813]
40 | 6.9 nM | CN1CCCC1CCNC(=O)Cn1cc(CNc2cc(Cl)c3ncc(C#N)c(Nc4ccc(F)c(Cl)c4)c3c2)nn1 (stereo not shown) [Example 651]
41 | 650 nM | N#Cc1cnc2c(Cl)cc(NCCNC(=O)c3cncnc3)cc2c1Nc1ccc(F)c(Cl)c1 [Example 864]
42 | 120 nM | CC(C)(C)OC(=O)N1CCCN(CCCn2cc(CNc3cc(Cl)c4ncc(C#N)c(Nc5ccc(F)c(Cl)c5)c4c3)nn2)CC1 [Example 763]
43 | 5 nM | CN(C)C(=O)Cn1cc(CNc2cc(Cl)c3ncc(C#N)c(Nc4ccc(F)c(Cl)c4)c3c2)nn1 [Example 788]
44 | 0.8 nM | N#Cc1cnc2c(Cl)cc(NCc3cn(CC(=O)NCc4cccnc4)nn3)cc2c1Nc1ccc(F)c(Cl)c1 [Example 819]
45 | 1600 nM | CN(C)CCNC(=O)CNc1cc(Cl)c2ncc(C#N)c(Nc3ccc(F)c(Cl)c3)c2c1 [Example 778]

Same assay, conditions: Tpl2/Cot kinase, GST-MEK1 substrate, 50 uM ATP, 1 h at 30° C.; Table 2

Row | IC50 | SMILES
46 | 130 nM | CC(C)N1CCC(n2cc(CNc3cc(Cl)c4ncc(C#N)c(NC5CCC5)c4c3)nn2)CC1 [Example 999]
47 | 23 nM | CCNC(=O)N1C2CCC1CC(n1cc(CNc3cc(Cl)c4ncc(C#N)c(Nc5ccc(F)c(Cl)c5)c4c3)nn1)C2 (stereo not shown) [Example 1052]
48 | 670 nM | CC(C)(C)OC(=O)N1CCC(n2cc(CNc3ccc4ncc(C#N)c(NC5CCCCC5)c4c3)nn2)CC1 [Example 968]
49 | 52 nM | CN1C(C)(C)CC(n2cc(CNc3cc(Cl)c4ncc(C#N)c(Nc5ccc(F)c(Cl)c5)c4c3)nn2)CC1(C)C [Example 1043]
